# Measured values: patent US20150366836A1, “METHOD AND PHARMACEUTICAL COMPOSITION FOR TREATING COLORECTAL CANCER” (National Dong Hua University, priority 2014, published 2015)
# Legend:
# HT-29 cells [1] = assay: Cell cycle analysis by flow cytometer (PI staining), HT-29 cells; format: cell-based
# Method: (§1) The results of Example 2 in cell viability hinted the effects of HCD, PG, and 5-FU on arresting cell cycle. In this example, the phase of cell cycle of Caco2 and HT-29 cells after the treatment listed in Table 1 was determined by flow cytometer. Briefly, 7×10^4 cells per well were inoculated in 12-wells plate and incubated overnight at 37° C., 5% CO2. Then, cells were treated according to the treatment listed in Table 1 by indicated time period. After treatment, cells were harvested by trypsin and fixed with 70% ethanol at −20° C. for at least 3 hr. The cells were washed in cold PBS twice and then incubated with 1 mL (v/v) staining solution (20 μg/mL propidium iodide (PI), 0.1% Triton X-100, 0.2 mg/mL Rnase) at 37° C. for 30 minutes. Lastly, cells were analyzed by flow cytometer (Cytomics™ FC500, Backman, Fullerton, Calif., USA). Data from 10,000 cells were collected for each experimental group.
# Caco2 cells [2] = assay: Cell cycle analysis by flow cytometer (PI staining), Caco2 cells; format: cell-based
# Method: as §1
# [3] = tested on: mouse bearing inflammatory bowel disease (IBD), AOM/DSS induced; assay: Mouse model bearing IBD (AOM/DSS induced), body weight and H&E staining of intestine; format: in vivo, C57/BL6 mice
# Method: The animal experiments were approved by the National Dong-Hwa University Animal Ethics Committee and the experimental protocols were used according to the “Guide for the Care and Use of Laboratory Animals” of National Dong-Hwa University. On day 0, C57/BL6 mice (6-8 weeks old) were weighted and injected (intraperitoneal; i.p.) with 10 mg/kg body weight of azoxymethane (AOM) and then fed with 2% Dextran sodium sulfate solution (DSS solution) via water every day for 7 days. On day 8, the 2% DSS solution was changed to normal water for another 7 days. The cycle of DSS solution and water was repeated and the induction procedure was completed on day 35.
# After the establishment of IBD in the experimental mice (on day 35), the mice were injected (i.p.) with 5-FU (15 mg/kg body weight) or HCD (0.64, 1.6, or 6.4 mg/kg body weight) once every three days for additional 30 days. Then, the mice were sacrificed. The colon, spleen, liver, and kidney thereof were immediately removed, observed, and further examined by H&E staining.
# HT-29 cells [4] = assay: MTT assay cell viability, HT-29 cells; format: cell-based; details: Homo sapiens; HT-29 cells, 36 hr treatment
# Method: (§2) Two cell lines were used in this study, Caco2 cells and HT-29 cells. Both of them are colorectal cancer cells. Caco2 cells and HT-29 cells were maintained in DMEM (or RPMI) supplemented with 20% or 10% fetal bovine serum (FBS; GIBCO), pH 7.4 at 37° C. with continuous circulation of 5% CO2 incubator. The medium was changed every 2 days and the cells were trypsinized using trypsin/EDTA when reaching 80%-90% confluence.
# (§3) In this example, the effects of HCD, PG, and 5-FU on the viability of Caco2 cells and HT-29 cells were examined. The MTT assay was employed for this purpose. The MTT (3-(4-,5-dimethylthiazol-2-yl)-2,5-diphenyltetrazolium bromide) assay is a common colorimetric method in the field for cell viability analysis. MTT (yellow tetrazolium salt) is reduced to a purple formazan by living cells and detection to the purple formazan can be calculated as the cell viability.
# (§4) Briefly, cells (Caco2 or HT-29) were seeded in 96-well plate (7×10^3 cell per well) and incubated overnight (37° C., 5% CO2).
# (§5) On the other hand, in the pretreatment analysis, cells (Caco2 or HT-29) were seeded in 96-well plate (7×10^3 cell per well) and incubated overnight (37° C., 5% CO2). In according to the treatments listed in the Table 1, Cells were pre-treated by HCD or PG for 6, 12, 24, 36, or 48 hr and then were treated by 5-FU for additional 24 hr.
# Caco2 cells [5] = assay: MTT assay cell viability, Caco2 cells; format: cell-based; details: Homo sapiens, Caco-2; Caco2 cells, 48 hr treatment
# Method: as §2, §3, §4, §5
structure (smiles),measurement,setting,value
"O=c1[nH]cc(F)c(=O)[nH]1 [5-FU, 5-Fluorouracil]",cell cycle arrest at sub-G1 phase vs control (in words),HT-29 cells [1]; HT-29,increased cell cycle arrest at sub-G1 phase
same,G0/G1 (%),"HT-29 cells [1]; HT-29, 0.5 μM, 24 hr",40.05 ± 0.35 %
same,G2/M (%),"HT-29 cells [1]; HT-29, 0.5 μM, 24 hr",17.45 ± 3.04%
same,S (%),"HT-29 cells [1]; HT-29, 0.5 μM, 24 hr",28.65 ± 1.20 %
same,Sub G1 (%),"HT-29 cells [1]; HT-29, 0.5 μM, 24 hr",6.75 ± 0.35%
same,G0/G1 (%),"HT-29 cells [1]; HT-29, 0.5 μM, 36 hr",46.15 ± 1.34 %
same,G2/M (%),"HT-29 cells [1]; HT-29, 0.5 μM, 36 hr",8.65 ± 1.48 %
same,S (%),"HT-29 cells [1]; HT-29, 0.5 μM, 36 hr",20.05 ± 1.91%
same,Sub G1 (%),"HT-29 cells [1]; HT-29, 0.5 μM, 36 hr",21.8 ± 5.09%
same,G0/G1 (%),"HT-29 cells [1]; HT-29, 2 μM, 24 hr",50.3 ± 0.85%
same,G2/M (%),"HT-29 cells [1]; HT-29, 2 μM, 24 hr",9.15 ± 0.78 %
same,S (%),"HT-29 cells [1]; HT-29, 2 μM, 24 hr",26.15 ± 1.77 %
same,Sub G1 (%),"HT-29 cells [1]; HT-29, 2 μM, 24 hr",7.75 ± 0.21%
same,G0/G1 (%),"HT-29 cells [1]; HT-29, 2 μM, 36 hr",36.65 ± 1.06 %
same,G2/M (%),"HT-29 cells [1]; HT-29, 2 μM, 36 hr",1.85 ± 0.5 %
same,S (%),"HT-29 cells [1]; HT-29, 2 μM, 36 hr",17.1 ± 2.12%
same,Sub G1 (%),"HT-29 cells [1]; HT-29, 2 μM, 36 hr",40.1 ± 1.69 %
same,G0/G1 (%),"HT-29 cells [1]; HT-29, 5 μM, 24 hr",56.65 ± 6.01%
same,G2/M (%),"HT-29 cells [1]; HT-29, 5 μM, 24 hr",9.4 ± 3.68 %
same,S (%),"HT-29 cells [1]; HT-29, 5 μM, 24 hr",21.45 ± 2.33 %
same,Sub G1 (%),"HT-29 cells [1]; HT-29, 5 μM, 24 hr",6.85 ± 0.64%
same,G0/G1 (%),"HT-29 cells [1]; HT-29, 5 μM, 36 hr",39.1 ± 5.66 %
same,G2/M (%),"HT-29 cells [1]; HT-29, 5 μM, 36 hr",1.05 ± 0.21%
same,S (%),"HT-29 cells [1]; HT-29, 5 μM, 36 hr",12.5 ± 0.71%
same,Sub G1 (%),"HT-29 cells [1]; HT-29, 5 μM, 36 hr",42.6 ± 5.37 %
same,cell cycle arrest at sub-G1 phase vs control (in words),Caco2 cells [2]; Caco2,increased cell cycle arrest at sub-G1 phase
same,G0/G1 (%),"Caco2 cells [2]; Caco2, 0.5 μM, 36 hr",46.15 ± 1.34 %
same,G2/M (%),"Caco2 cells [2]; Caco2, 0.5 μM, 36 hr",8.65 ± 1.48 %
same,S (%),"Caco2 cells [2]; Caco2, 0.5 μM, 36 hr",20.05 ± 1.91%
same,Sub G1 (%),"Caco2 cells [2]; Caco2, 0.5 μM, 36 hr",21.8 ± 5.09%
same,G0/G1 (%),"Caco2 cells [2]; Caco2, 0.5 μM, 48 hr",46.15 ± 1.34%
same,G2/M (%),"Caco2 cells [2]; Caco2, 0.5 μM, 48 hr",1.5 ± 0.14 %
same,S (%),"Caco2 cells [2]; Caco2, 0.5 μM, 48 hr",13.65 ± 1.34%
same,Sub G1 (%),"Caco2 cells [2]; Caco2, 0.5 μM, 48 hr",20.9 ± 3.25%
same,G0/G1 (%),"Caco2 cells [2]; Caco2, 2 μM, 36 hr",36.65 ± 1.06 %
same,G2/M (%),"Caco2 cells [2]; Caco2, 2 μM, 36 hr",1.85 ± 0.5 %
same,S (%),"Caco2 cells [2]; Caco2, 2 μM, 36 hr",17.1 ± 2.12%
same,Sub G1 (%),"Caco2 cells [2]; Caco2, 2 μM, 36 hr",40.1 ± 1.69 %
same,G0/G1 (%),"Caco2 cells [2]; Caco2, 2 μM, 48 hr",35.35 ± 2.47 %
same,G2/M (%),"Caco2 cells [2]; Caco2, 2 μM, 48 hr",3.55 ± 3.89 %
same,S (%),"Caco2 cells [2]; Caco2, 2 μM, 48 hr",18.05 ± 10.11%
same,Sub G1 (%),"Caco2 cells [2]; Caco2, 2 μM, 48 hr",37.55 ± 14.64 %
same,G0/G1 (%),"Caco2 cells [2]; Caco2, 5 μM, 36 hr",39.1 ± 5.66 %
same,G2/M (%),"Caco2 cells [2]; Caco2, 5 μM, 36 hr",1.05 ± 0.21%
same,S (%),"Caco2 cells [2]; Caco2, 5 μM, 36 hr",12.5 ± 0.71%
same,Sub G1 (%),"Caco2 cells [2]; Caco2, 5 μM, 36 hr",42.6 ± 5.37 %
same,G0/G1 (%),"Caco2 cells [2]; Caco2, 5 μM, 48 hr",36.7 ± 8.06 %
same,G2/M (%),"Caco2 cells [2]; Caco2, 5 μM, 48 hr",2.7 ± 2.95 %
same,S (%),"Caco2 cells [2]; Caco2, 5 μM, 48 hr",17.5 ± 10.47%
same,Sub G1 (%),"Caco2 cells [2]; Caco2, 5 μM, 48 hr",38.3 ± 24.47 %
same,intestine villus arrangement (H&E staining),[3]; 15 mg/kg body weight i.p.,irregular arrangement of villus
same,lymph node (H&E staining),[3]; 15 mg/kg body weight i.p.,enlarged
same,body weight,"[3]; 15 mg/kg body weight i.p. once every three days, 30 days",initially reduced
same,IC50,HT-29 cells [4],50 µM
same,IC50,Caco2 cells [5],100 µM
